Data set [1] has as its system rat. The following applies: Subchronic oral toxicity in rodents, sprague dawley, Gavage/Intubation, dose end: 93 day, group: systemic.
In data set [2] the test system is dog. The following applies: Sub-acute repeat dose toxicity; beagle; Oral; Gavage/Intubation; dose end: 14 day; group: systemic; systemic / clinical chemistry / [other] / [other].
For data set [3], the system named is dog. Conditions: Subchronic oral toxicity in nonrodent, beagle, Gavage/Intubation, dose end: 91 day, group: systemic.
In data set [4] the test system is rat. Conditions: Sub-acute repeat dose toxicity; Oral; Gavage/Intubation; dose end: 7 day; group: systemic; systemic / hematology / erythrocyte (rbc) count differential / erythrocyte (rbc) + systemic / hematology / hematocrit (hct) / hematocrit (….
The test system of data set [5] is rat. Conditions: Sub-acute repeat dose toxicity, sprague dawley, Oral, Gavage/Intubation, dose end: 10 day, group: systemic.
For data set [6], the system named is rat. Conditions: Sub-acute repeat dose toxicity, sprague dawley, Oral, Gavage/Intubation, dose end: 14 day, group: systemic.
Data set [7] concerns rabbit. Conditions: Prenatal developmental toxicity study; new zealand white; Oral; Gavage/Intubation; dose end: 19 GD; group: maternal; systemic / in life observation / body weight / body weight + systemic / in life observation / body weight / body weight gain + systemic / in….
The subject of data set [8] is rabbit. The following applies: Prenatal developmental toxicity study, new zealand white, Oral, Gavage/Intubation, dose end: 19 GD.
Data set [9] concerns rat. Conditions: Prenatal developmental toxicity study, other, Oral, Gavage/Intubation, dose end: 17 GD.
Data set [10] concerns rat. The following applies: Prenatal developmental toxicity study, sprague dawley, Oral, Gavage/Intubation, dose end: 17 GD.
For data set [11], the system named is mouse. Conditions: Carcinogenicity, b6c3f1, Oral, Gavage/Intubation, dose end: 2 year, group: systemic.
In data set [12] the test system is rat. The following applies: Combined chronic toxicity/carcinogenicity; fischer; Oral; Gavage/Intubation; dose end: 2 year; group: systemic; systemic / in life observation / mortality / mortality + systemic / pathology microscopic / lung / foreign body + systemic / pathology ….
Data set [13] relates to rat. Conditions: Subchronic oral toxicity in rodents, fischer, Gavage/Intubation, dose end: 13 week, group: systemic.
The subject of data set [14] is mouse. The following applies: Subchronic oral toxicity in rodents, b6c3f1, Gavage/Intubation, dose end: 13 week, group: systemic.
For data set [15], the system named is rat. Conditions: Multigenerational reproductive toxicity study, sprague dawley, Oral, Feed, dose end: 2 generation, group: parental.
The test system of data set [16] is rat. The following applies: Subchronic oral toxicity in rodents, fischer, Feed, dose end: 13 week, group: systemic.
Data set [17] relates to dog. Conditions: Chronic toxicity; beagle; Oral; Feed; dose end: 52 week; group: systemic; systemic / organ weight / thyroid gland / absolute + systemic / organ weight / thyroid gland / relative to body weight + systemic / ….
The test system of data set [18] is rat. The following applies: Carcinogenicity; fischer; Oral; Feed; dose end: 103 week; group: systemic; systemic / in life observation / body weight / body weight + systemic / pathology microscopic / eye / cataract + systemic / pathology ….
For data set [19], the system named is mouse. Conditions: Sub-acute repeat dose toxicity; b6c3f1; Oral; Feed; dose end: 14 day; group: systemic; systemic / in life observation / clinical signs / fur (altered appearance) + systemic / in life observation / mortality / mortality.
In data set [20] the test system is rat. Conditions: Sub-acute repeat dose toxicity; fischer; Oral; Feed; dose end: 14 day; group: systemic; systemic / in life observation / body weight / body weight gain + systemic / in life observation / clinical signs / urogenital staining + ….
Data set [21] relates to mouse. The following applies: Carcinogenicity; b6c3f1; Oral; Feed; dose end: 103 week; group: systemic; systemic / in life observation / body weight / body weight.
The subject of data set [22] is rat. The following applies: Subchronic oral toxicity in rodents, fischer, Feed, dose end: 13 week, group: systemic. This is another data set of the same source.
Setting [23] is: systemic / in life observation / clinical signs / [other].
The mark [24] stands for this setting: systemic / in life observation / clinical signs / [other] + systemic / in life observation / clinical signs / salivation.
Setting [25] is: systemic / in life observation / clinical signs / abnormal feces + systemic / in life observation / clinical signs / emesis.
The mark [26] stands for this setting: systemic / in life observation / clinical signs / abnormal feces + systemic / in life observation / clinical signs / emesis + systemic / ….
Setting [27] is: systemic / in life observation / body weight / body weight gain + systemic / in life observation / food consumption / food consumption.
[28] abbreviates: systemic / in life observation / food consumption / food consumption.
[29] abbreviates: systemic / clinical chemistry / [other] / [other] + systemic / in life observation / clinical signs / [other] + systemic / in life ….
Setting [30] is: group: developmental, systemic / in life observation / body weight / fetal weight.
Where [31] appears, read: group: maternal, systemic / in life observation / body weight / body weight + systemic / in life observation / food consumption / food consumption + systemic….
The mark [32] stands for this setting: group: maternal, systemic / in life observation / body weight / body weight + systemic / in life observation / food consumption / food consumption.
[33] abbreviates: group: maternal, systemic / in life observation / body weight / body weight + systemic / in life observation / food consumption / food consumption + ….
[34] abbreviates: group: maternal, systemic / in life observation / food consumption / food consumption.
[35] abbreviates: group: maternal, systemic / in life observation / food consumption / food consumption + reproductive / reproductive performance / postimplantation loss / ….
Setting [36] is: systemic / pathology microscopic / brain / corpora amylacea + systemic / pathology microscopic / adrenal gland / adenoma + systemic / ….
Setting [37] is: systemic / in life observation / body weight / body weight.
Setting [38] is: systemic / in life observation / body weight / body weight + systemic / in life observation / clinical signs / labored respiration + ….
[39] abbreviates: systemic / in life observation / body weight / body weight + systemic / in life observation / clinical signs / unsteady gait.
[40] abbreviates: systemic / pathology microscopic / thyroid gland / hyperplasia + systemic / pathology microscopic / thyroid gland / hypertrophy + systemic….
Setting [41] is: systemic / in life observation / body weight / body weight + systemic / in life observation / food consumption / food consumption + systemic….
The mark [42] stands for this setting: systemic / in life observation / body weight / body weight + systemic / pathology microscopic / thyroid gland / hyperplasia.
The mark [43] stands for this setting: systemic / in life observation / body weight / body weight gain.
Setting [44] is: systemic / in life observation / body weight / body weight gain + systemic / in life observation / clinical signs / skin discoloration + ….

Where only a bound is given, the exact number is not on record here.

The results in this text go back to EPA's ToxRefDB 2.

The LOAEL is the lowest tested level that showed an adverse finding. What is called NOAEL is the highest dose or exposure tested at which no adverse effect was seen. Turning to `CCOc1ccc2[nH]cc(C(=O)NCc3ccccc3)c(=O)c2n1`, the LEL in the data set with rat [1] (setting [23]) turned out to be 10 mg/kg/day; in the data set with dog [2] it was 26 mg/kg/day; in the data set with dog [3] (setting [25]), 1 mg/kg/day; with rat [4], 240 mg/kg/day; in the data set with rat [5] (setting [28]) it was 5 mg/kg/day; in the data set on rat [6] (setting [23]) it was 10 mg/kg/day. For the same compound, the NEL in the data set with rat [1] (setting [23]) was less than 10 mg/kg/day; in the data set on dog [2], 6 mg/kg/day; in the data set with dog [3] (setting [25]) it was less than 1 mg/kg/day; in the data set on rat [4], less than 240 mg/kg/day; in the data set on rat [5] (setting [28]), less than 5 mg/kg/day; in the data set on rat [6] (setting [23]), less than 10 mg/kg/day. Besides, the LOAEL in the data set with rat [1] (setting [24]) was greater than 240 mg/kg/day; in the data set with dog [2] it was greater than 26 mg/kg/day; in the data set with dog [3] (setting [26]), greater than 80 mg/kg/day; in the data set with rat [4], greater than 240 mg/kg/day; in the data set on rat [5] (setting [27]) it was greater than 160 mg/kg/day; in the data set on rat [6] (setting [29]), greater than 198 mg/kg/day. The NOAEL is no less than 240 mg/kg/day in the data set on rat [1] (setting [24]); no less than 26 mg/kg/day in the data set with dog [2]; no less than 80 mg/kg/day in the data set with dog [3] (setting [26]); no less than 240 mg/kg/day in the data set with rat [4]; no less than 160 mg/kg/day with rat [5] (setting [27]); no less than 198 mg/kg/day in the data set on rat [6] (setting [29]).
In the case of `CCCOc1sc(C(=O)N2CCC(c3cc(CN)ccc3F)CC2)c(C)c1Br.Cl` [AVE8923], the LEL amounted to 50 mg/kg/day in the data set with rabbit [7]; 200 mg/kg/day with rabbit [8] (setting [30]); 200 mg/kg/day with rabbit [8] (setting [31]); 100 mg/kg/day with rat [9] (setting [30]); 100 mg/kg/day in the data set with rat [9] (setting [33]); 75 mg/kg/day with rat [10] (setting [30]). In the data set on rat [10] (setting [34]), this compound returned an LEL of 75 mg/kg/day. Moreover, the LOAEL with rabbit [7] is greater than 300 mg/kg/day; in the data set with rabbit [8] (setting [30]), greater than 200 mg/kg/day; with rabbit [8] (setting [31]), greater than 200 mg/kg/day; in the data set on rat [9] (setting [30]) it was 100 mg/kg/day; in the data set with rat [9] (setting [33]), 100 mg/kg/day; with rat [10] (setting [30]), 75 mg/kg/day. In the data set on rat [10] (setting [34]), this compound showed an LOAEL of 75 mg/kg/day. Besides, the NEL in the data set on rabbit [7] is less than 50 mg/kg/day; in the data set on rabbit [8] (setting [30]) it was 100 mg/kg/day; in the data set on rabbit [8] (setting [31]), 100 mg/kg/day; in the data set with rat [9] (setting [30]), 25 mg/kg/day; in the data set on rat [9] (setting [32]) it was 25 mg/kg/day; with rat [10] (setting [30]), 25 mg/kg/day. For the same compound, in the data set with rat [10] (setting [35]), the NEL worked out at 25 mg/kg/day. The NOAEL in the data set with rabbit [7] was no less than 300 mg/kg/day; with rabbit [8] (setting [30]) it was no less than 200 mg/kg/day; in the data set on rabbit [8] (setting [31]) it was no less than 200 mg/kg/day; in the data set on rat [9] (setting [30]), 25 mg/kg/day; in the data set with rat [9] (setting [32]) it was 25 mg/kg/day; in the data set on rat [10] (setting [30]) it was 25 mg/kg/day. Moreover, the NOAEL in the data set on rat [10] (setting [35]) stood at 25 mg/kg/day.
On to `OCc1ccccc1` [Benzyl alcohol], for which the NEL was 100 mg/kg/day in the data set on mouse [11] (systemic / pathology microscopic / brain / corpora amylacea), less than 200 mg/kg/day in the data set on rat [12], 100 mg/kg/day in the data set on rat [13] (setting [38]) and 200 mg/kg/day in the data set with mouse [14] (setting [39]). The LEL worked out at 200 mg/kg/day in the data set with mouse [11] (setting [36]), 200 mg/kg/day with rat [12], 200 mg/kg/day in the data set on rat [13] (setting [37]) and 400 mg/kg/day in the data set on mouse [14] (setting [37]). Also, the LOAEL with mouse [11] (setting [36]) is greater than 200 mg/kg/day; in the data set on rat [12] it was greater than 400 mg/kg/day; in the data set with rat [13] (setting [37]) it was 400 mg/kg/day; in the data set on mouse [14] (setting [39]), 800 mg/kg/day. For the same compound, the NOAEL is no less than 200 mg/kg/day in the data set on mouse [11] (setting [36]), no less than 400 mg/kg/day in the data set with rat [12], 200 mg/kg/day with rat [13] (setting [38]) and 400 mg/kg/day with mouse [14] (setting [39]).
For the compound `S=C1NCCN1` [Ethylene thiourea], the results for the LOAEL with rat [15] (systemic / pathology microscopic / thyroid gland / hyperplasia + systemic / pathology microscopic / thyroid gland / hypertrophy), in the data set with rat [16] (setting [41]) and in the data set with dog [17] were 1.25 mg/kg/day, greater than 150 mg/kg/day and 1.79 mg/kg/day, respectively. The values for the LEL with rat [15] (setting [40]), with rat [16] (setting [42]) and with dog [17] were 1.25 mg/kg/day, 12 mg/kg/day and 1.79 mg/kg/day, respectively. Moreover, the NEL is 0.125 mg/kg/day with rat [15] (setting [40]), less than 12 mg/kg/day in the data set on rat [16] (setting [42]) and 0.19 mg/kg/day in the data set on dog [17]. Moreover, the results for the NOAEL with rat [15] (setting [40]), in the data set on rat [16] (setting [41]) and in the data set on dog [17] were 0.125 mg/kg/day, no less than 150 mg/kg/day and 0.19 mg/kg/day, respectively.
With `CCCOC(=O)c1cc(O)c(O)c(O)c1` [Propyl gallate], the LEL in the data set on rat [18] was 300 mg/kg/day; in the data set on mouse [19], 7500 mg/kg/day; in the data set with rat [20], 2500 mg/kg/day; in the data set with mouse [21], 900 mg/kg/day; in the data set on rat [22] (setting [43]) it was 625 mg/kg/day. Moreover, the LOAEL with rat [18] was 300 mg/kg/day; with mouse [19] it was greater than 15000 mg/kg/day; in the data set on rat [20] it was greater than 5000 mg/kg/day; in the data set on mouse [21] it was 900 mg/kg/day; with rat [22] (setting [43]) it was 625 mg/kg/day. For the same compound, the NEL was less than 300 mg/kg/day in the data set on rat [18]; 3750 mg/kg/day in the data set on mouse [19]; 1250 mg/kg/day in the data set with rat [20]; less than 900 mg/kg/day in the data set on mouse [21]; 300 mg/kg/day with rat [22] (setting [44]). Also, the NOAEL is less than 300 mg/kg/day with rat [18]; no less than 15000 mg/kg/day in the data set with mouse [19]; no less than 5000 mg/kg/day with rat [20]; less than 900 mg/kg/day in the data set on mouse [21]; 300 mg/kg/day in the data set with rat [22] (setting [44]).
